# Results as given in ChEMBL document CHEMBL5291721, “A preclinical secondary pharmacology resource illuminates target-adverse drug reaction associations of marketed drugs” (Nat Commun, 2023).
# Columns and labels:
# [1] = biological target: T1, Alpha-2A adrenergic receptor (Homo sapiens, UniProt P08913); type: functional, cell-based
# T1 sequence (P08913 whole entry): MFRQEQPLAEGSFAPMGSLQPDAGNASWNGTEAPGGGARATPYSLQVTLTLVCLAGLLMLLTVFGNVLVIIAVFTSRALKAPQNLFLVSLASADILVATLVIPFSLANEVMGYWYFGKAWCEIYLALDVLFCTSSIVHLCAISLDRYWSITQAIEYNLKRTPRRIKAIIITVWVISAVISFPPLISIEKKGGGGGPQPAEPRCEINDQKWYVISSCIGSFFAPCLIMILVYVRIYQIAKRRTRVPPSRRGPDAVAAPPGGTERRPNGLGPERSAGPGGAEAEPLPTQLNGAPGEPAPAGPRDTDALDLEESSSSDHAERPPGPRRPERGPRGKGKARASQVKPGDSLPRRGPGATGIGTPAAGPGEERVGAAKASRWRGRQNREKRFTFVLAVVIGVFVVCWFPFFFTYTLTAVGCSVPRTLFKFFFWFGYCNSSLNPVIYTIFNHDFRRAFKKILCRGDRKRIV
# [2] = biological target: T1, Alpha-2A adrenergic receptor; type: functional, cell-based; remark: listed apart in the source
# [3] = biological target: T2, Cholecystokinin receptor type A (Homo sapiens, UniProt P32238)
# T2 sequence (P32238 whole entry): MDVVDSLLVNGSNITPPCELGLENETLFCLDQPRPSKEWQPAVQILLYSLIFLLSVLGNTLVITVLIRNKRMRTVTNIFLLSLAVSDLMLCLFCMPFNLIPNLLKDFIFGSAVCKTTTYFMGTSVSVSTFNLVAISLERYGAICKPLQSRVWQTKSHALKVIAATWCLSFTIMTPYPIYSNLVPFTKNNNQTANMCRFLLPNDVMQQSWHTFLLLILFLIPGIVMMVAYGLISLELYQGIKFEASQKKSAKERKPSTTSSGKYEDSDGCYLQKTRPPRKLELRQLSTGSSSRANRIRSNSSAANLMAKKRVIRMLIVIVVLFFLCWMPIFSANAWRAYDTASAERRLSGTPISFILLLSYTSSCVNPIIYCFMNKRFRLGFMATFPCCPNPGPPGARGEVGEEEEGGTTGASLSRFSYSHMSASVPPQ
# [4] = biological target: T3, Muscarinic acetylcholine receptor M2 (Homo sapiens, UniProt P08172); type: functional, cell-based
# T3 sequence (P08172 whole entry): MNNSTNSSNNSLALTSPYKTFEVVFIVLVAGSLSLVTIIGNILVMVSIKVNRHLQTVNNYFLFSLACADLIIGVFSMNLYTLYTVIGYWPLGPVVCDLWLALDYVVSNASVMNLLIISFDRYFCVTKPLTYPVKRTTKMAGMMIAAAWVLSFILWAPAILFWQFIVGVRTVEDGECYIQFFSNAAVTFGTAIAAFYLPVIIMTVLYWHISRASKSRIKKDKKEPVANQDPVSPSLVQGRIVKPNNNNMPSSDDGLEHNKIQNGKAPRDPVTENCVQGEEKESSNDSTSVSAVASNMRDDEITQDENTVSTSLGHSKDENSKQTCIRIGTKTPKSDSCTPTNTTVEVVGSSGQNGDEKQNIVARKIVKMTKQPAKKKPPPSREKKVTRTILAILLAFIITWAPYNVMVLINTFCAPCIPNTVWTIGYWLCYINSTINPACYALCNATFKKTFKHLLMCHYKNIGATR
# [5] = biological target: Neuronal acetylcholine receptor subunit alpha-4 (Homo sapiens, UniProt P43681)
# [6] = biological target: Growth hormone secretagogue receptor type 1 (Homo sapiens, UniProt Q92847)
# [7] = biological target: Kappa-type opioid receptor (Homo sapiens, UniProt P41145)
# [8] = biological target: T4, Progesterone receptor (Homo sapiens, UniProt P06401); type: functional
# T4 sequence (P06401 whole entry): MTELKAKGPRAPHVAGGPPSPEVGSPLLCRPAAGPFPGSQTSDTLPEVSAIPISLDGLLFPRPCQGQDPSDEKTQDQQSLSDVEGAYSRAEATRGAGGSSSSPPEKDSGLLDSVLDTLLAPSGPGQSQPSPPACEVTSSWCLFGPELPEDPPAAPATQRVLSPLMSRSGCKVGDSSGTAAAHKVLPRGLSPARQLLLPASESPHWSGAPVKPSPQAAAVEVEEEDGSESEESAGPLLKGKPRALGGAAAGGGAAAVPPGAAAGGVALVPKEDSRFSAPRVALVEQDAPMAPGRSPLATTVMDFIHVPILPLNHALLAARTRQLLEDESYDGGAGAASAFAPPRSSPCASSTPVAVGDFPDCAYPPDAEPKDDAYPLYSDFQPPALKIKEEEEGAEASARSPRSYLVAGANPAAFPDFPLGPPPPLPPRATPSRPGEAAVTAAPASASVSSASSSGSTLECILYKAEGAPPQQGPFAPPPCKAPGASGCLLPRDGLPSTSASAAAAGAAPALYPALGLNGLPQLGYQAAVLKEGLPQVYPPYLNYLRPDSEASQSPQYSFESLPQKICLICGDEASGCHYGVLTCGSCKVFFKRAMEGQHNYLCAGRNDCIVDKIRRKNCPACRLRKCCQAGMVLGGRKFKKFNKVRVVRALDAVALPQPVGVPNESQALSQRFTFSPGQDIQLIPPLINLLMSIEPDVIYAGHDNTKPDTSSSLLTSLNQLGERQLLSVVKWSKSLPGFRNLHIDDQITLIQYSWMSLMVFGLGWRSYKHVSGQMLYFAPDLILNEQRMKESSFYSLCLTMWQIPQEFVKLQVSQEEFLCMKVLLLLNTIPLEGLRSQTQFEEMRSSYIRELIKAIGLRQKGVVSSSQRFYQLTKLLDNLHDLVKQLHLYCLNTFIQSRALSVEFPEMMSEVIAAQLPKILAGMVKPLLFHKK
# [9] = biological target: T5, Thromboxane A2 receptor (Homo sapiens, UniProt P21731)
# T5 sequence (P21731 whole entry): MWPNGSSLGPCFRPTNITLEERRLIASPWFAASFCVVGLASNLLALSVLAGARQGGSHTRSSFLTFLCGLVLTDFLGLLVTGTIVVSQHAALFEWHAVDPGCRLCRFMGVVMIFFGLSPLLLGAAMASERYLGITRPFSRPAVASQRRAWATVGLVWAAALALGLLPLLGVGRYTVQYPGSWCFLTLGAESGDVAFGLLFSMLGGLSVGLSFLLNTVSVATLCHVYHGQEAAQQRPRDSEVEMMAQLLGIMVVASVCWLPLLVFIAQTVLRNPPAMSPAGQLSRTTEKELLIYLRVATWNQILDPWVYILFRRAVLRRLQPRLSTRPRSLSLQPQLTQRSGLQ
# [10] = biological target: Cannabinoid receptor 1 (Homo sapiens, UniProt P21554); type: functional, cell-based
# Note: assay procedure not described here.
# Neuronal acetylcholine receptor subunit alpha-4, sequence (P43681 whole entry): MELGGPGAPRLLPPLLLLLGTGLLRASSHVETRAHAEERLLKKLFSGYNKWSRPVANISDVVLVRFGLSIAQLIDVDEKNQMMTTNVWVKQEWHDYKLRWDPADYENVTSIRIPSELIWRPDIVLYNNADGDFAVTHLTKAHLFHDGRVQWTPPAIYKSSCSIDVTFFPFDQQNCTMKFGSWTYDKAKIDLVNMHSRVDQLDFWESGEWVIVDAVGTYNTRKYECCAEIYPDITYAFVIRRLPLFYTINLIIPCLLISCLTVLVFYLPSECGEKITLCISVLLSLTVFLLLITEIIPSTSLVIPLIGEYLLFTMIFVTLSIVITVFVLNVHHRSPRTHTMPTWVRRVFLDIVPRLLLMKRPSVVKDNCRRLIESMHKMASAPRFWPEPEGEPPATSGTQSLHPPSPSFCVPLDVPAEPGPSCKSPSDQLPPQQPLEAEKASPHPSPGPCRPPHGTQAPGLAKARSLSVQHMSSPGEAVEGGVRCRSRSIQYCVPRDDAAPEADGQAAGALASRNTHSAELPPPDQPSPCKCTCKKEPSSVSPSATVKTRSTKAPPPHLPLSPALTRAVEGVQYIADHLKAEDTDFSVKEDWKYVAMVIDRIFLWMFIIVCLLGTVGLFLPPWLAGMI
# Growth hormone secretagogue receptor type 1, sequence (Q92847 whole entry): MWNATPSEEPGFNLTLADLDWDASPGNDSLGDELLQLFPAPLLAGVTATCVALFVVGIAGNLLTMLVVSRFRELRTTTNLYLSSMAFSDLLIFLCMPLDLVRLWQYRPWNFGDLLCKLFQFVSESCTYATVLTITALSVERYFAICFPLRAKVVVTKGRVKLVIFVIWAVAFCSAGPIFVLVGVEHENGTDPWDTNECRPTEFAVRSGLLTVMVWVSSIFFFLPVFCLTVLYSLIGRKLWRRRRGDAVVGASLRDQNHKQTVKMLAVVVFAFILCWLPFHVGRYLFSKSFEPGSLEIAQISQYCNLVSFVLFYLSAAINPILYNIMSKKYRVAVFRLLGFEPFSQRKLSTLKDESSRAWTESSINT
# Kappa-type opioid receptor, sequence (P41145 whole entry): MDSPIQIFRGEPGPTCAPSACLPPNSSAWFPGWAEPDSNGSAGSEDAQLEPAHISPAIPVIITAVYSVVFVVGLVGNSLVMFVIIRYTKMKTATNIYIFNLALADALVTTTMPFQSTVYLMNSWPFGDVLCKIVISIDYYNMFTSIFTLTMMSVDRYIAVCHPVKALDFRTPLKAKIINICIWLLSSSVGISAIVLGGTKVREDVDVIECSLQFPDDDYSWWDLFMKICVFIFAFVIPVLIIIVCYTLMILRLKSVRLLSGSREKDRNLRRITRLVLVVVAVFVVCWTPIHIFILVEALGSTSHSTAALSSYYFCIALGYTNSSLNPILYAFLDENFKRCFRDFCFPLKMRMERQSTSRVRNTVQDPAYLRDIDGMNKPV
# Cannabinoid receptor 1, sequence (P21554 whole entry): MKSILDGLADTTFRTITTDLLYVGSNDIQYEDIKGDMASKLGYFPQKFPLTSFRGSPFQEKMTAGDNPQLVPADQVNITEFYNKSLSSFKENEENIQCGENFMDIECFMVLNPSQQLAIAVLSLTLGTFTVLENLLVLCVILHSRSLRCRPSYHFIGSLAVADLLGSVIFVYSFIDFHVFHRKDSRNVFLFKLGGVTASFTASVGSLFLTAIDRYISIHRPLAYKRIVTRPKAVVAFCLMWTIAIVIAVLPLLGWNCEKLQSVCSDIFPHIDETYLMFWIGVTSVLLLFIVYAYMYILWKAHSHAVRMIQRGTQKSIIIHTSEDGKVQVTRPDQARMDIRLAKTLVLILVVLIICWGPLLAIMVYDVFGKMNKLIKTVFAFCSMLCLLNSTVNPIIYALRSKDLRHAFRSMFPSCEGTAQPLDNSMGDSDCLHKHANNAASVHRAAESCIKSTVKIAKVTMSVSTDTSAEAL
SMILES,AC50 [1],AC50 [2],AC50 [3],AC50 [4],AC50 [5],AC50 [6],AC50 [7],AC50 [8],AC50 [9],AC50 [10]
O=C1C(O)=C([C@H]2CC[C@H](c3ccc(Cl)cc3)CC2)C(=O)c2ccccc21 [ATOVAQUONE],> 30 µM,> 30 µM,> 30 µM,> 30 µM,> 30 µM,> 30 µM,> 30 µM,> 30 µM,> 30 µM,–
COc1ccc(CCNCC(O)COc2cccc(C)c2)cc1OC (stereo not given) [BEVANTOLOL],> 10 µM,> 10 µM,> 10 µM,> 10 µM,> 10 µM,> 10 µM,> 10 µM,> 10 µM,> 10 µM,–
Brc1c(NC2=NCCN2)ccc2nccnc12 [BRIMONIDINE],–,–,> 30 µM,> 30 µM,> 30 µM,> 30 µM,> 30 µM,> 30 µM,–,> 30 µM
CC(CC1c2ccccc2CCc2ccccc21)CN(C)C (stereo not given) [BUTRIPTYLINE],> 30 µM,> 30 µM,–,–,–,–,> 30 µM,–,–,> 30 µM
CC(C)(C)NCC(O)COc1cccc2c1CCC(=O)N2 (stereo not given) [CARTEOLOL],> 10 µM,> 10 µM,> 10 µM,> 10 µM,> 10 µM,> 10 µM,11.6 µM,> 10 µM,> 10 µM,> 30 µM
Nc1nc(Cl)nc2c1ncn2[C@H]1C[C@H](O)[C@@H](CO)O1 [CLADRIBINE],> 30 µM,> 30 µM,> 30 µM,> 30 µM,> 30 µM,> 30 µM,> 30 µM,> 30 µM,–,> 30 µM
Clc1ccccc1C(c1ccccc1)(c1ccccc1)n1ccnc1 [CLOTRIMAZOLE],–,–,–,> 10 µM,> 10 µM,–,0.746 µM,–,–,> 30 µM
COc1ccc2c3c1O[C@H]1[C@@H](O)CC[C@H]4[C@@H](C2)N(C)CC[C@@]341 [DIHYDROCODEINE],> 30 µM,> 30 µM,–,–,–,–,> 30 µM,–,–,> 30 µM
NC(=O)OCC(COC(N)=O)c1ccccc1 [FELBAMATE],> 10 µM,> 10 µM,> 10 µM,> 10 µM,> 10 µM,> 10 µM,> 10 µM,> 10 µM,> 10 µM,–
Fc1ccc(C(c2ccccc2)(c2ccccc2F)n2ccnc2)cc1 (stereo not given) [FLUTRIMAZOLE],> 30 µM,> 30 µM,> 30 µM,> 30 µM,> 30 µM,> 30 µM,0.93 µM,> 30 µM,30 µM,> 30 µM
Cc1c(OCC(F)(F)F)ccnc1C[S+]([O-])c1nc2ccccc2[nH]1 (stereo not given) [LANSOPRAZOLE],> 10 µM,> 10 µM,> 30 µM,> 10 µM,–,9.67 µM,4.88 µM,–,3.46 µM,> 30 µM
NC(=O)CN1CC(O)CC1=O (stereo not given) [OXIRACETAM],> 30 µM,> 30 µM,> 30 µM,> 30 µM,> 30 µM,> 30 µM,> 30 µM,> 30 µM,> 30 µM,> 30 µM
Cc1cc(C(C)(C)C)c(O)c(C)c1CC1=NCCN1 [OXYMETAZOLINE],–,–,–,23 µM,–,–,–,> 30 µM,–,> 30 µM
C[C@H]1COc2c(C3(N)CC3)c(F)cc3c(=O)c(C(=O)O)cn1c23 [PAZUFLOXACIN],> 10 µM,> 10 µM,> 10 µM,> 10 µM,> 10 µM,> 10 µM,> 10 µM,> 30 µM,> 10 µM,–
C[C@@H]1O[C@@H](O[C@@H]2C=C3CC[C@@H]4[C@H](CC[C@]5(C)[C@@H](c6ccc(=O)oc6)CC[C@]45O)[C@@]3(C)CC2)[C@H](O)[C@H](O)[C@H]1O [PROSCILLARIDIN],> 30 µM,> 30 µM,> 30 µM,> 30 µM,> 30 µM,> 30 µM,> 30 µM,> 30 µM,> 30 µM,> 30 µM
CC/C(=C(\c1ccccc1)c1ccc(OCCN(C)C)cc1)c1ccccc1 [TAMOXIFEN],> 10 µM,> 10 µM,–,> 10 µM,> 30 µM,–,8.53 µM,–,–,–
C#C[C@]1(O)CC[C@H]2[C@@H]3[C@H](C)CC4=C(CCC(=O)C4)[C@H]3CC[C@@]21C [TIBOLONE],> 30 µM,> 30 µM,> 30 µM,> 30 µM,> 30 µM,> 30 µM,19 µM,–,> 30 µM,> 30 µM
COc1cccc(C2(O)CCCCC2CN(C)C)c1 (stereo not given) [TRAMADOL],> 10 µM,> 10 µM,> 30 µM,–,–,> 30 µM,> 10 µM,–,> 30 µM,> 30 µM
Cc1nnc2n1-c1ccc(Cl)cc1C(c1ccccc1Cl)=NC2 [TRIAZOLAM],> 10 µM,> 10 µM,> 30 µM,> 10 µM,> 10 µM,> 30 µM,–,–,> 30 µM,> 30 µM
CC1(C)CCC(CN2CCN(c3ccc(C(=O)NS(=O)(=O)c4ccc(NCC5CCOCC5)c([N+](=O)[O-])c4)c(Oc4cnc5[nH]ccc5c4)c3)CC2)=C(c2ccc(Cl)cc2)C1 [VENETOCLAX],–,–,–,–,–,–,–,> 30 µM,–,–
